Data set [1] in a line: In vitro release of lidocaine from silicone tube devices (diffusion through wall / apertures). Format: physicochemical. The conditions noted are these: in vitro in water at about 37° C.; tubes with or without apertures. The procedure: A study was performed to determine the feasibility of delivering drug through the wall of a drug reservoir via diffusion. […] Some of the devices included an aperture formed through the tube wall, the aperture having a diameter of 150 μm. […] The devices were tested in vitro in water at about 37° C. […] Another study was performed to investigate the feasibility of delivering drug from a device through both a wall of a drug reservoir and from an aperture in the wall of the drug reservoir. Devices were formed form silicone tubes having a length of about 3 cm. […] The devices were tested in vitro in water at about 37° C.

The test system of another data set is IC. The conditions noted are these: cited from earlier work.

The text below walks through data of patent publication US10123981B2, “Methods for treatment of pelvic pain and/or comorbid conditions” (priority 2012, dated 2018).

Molecules are shown by their SMILES. Where two headings read alike, the source gives them in different places.

Turning to `CCN(CC)CC(=O)Nc1c(C)cccc1C` [lidocaine base], the “release of drug from silicone tube” value in data set [1] was “can be released from a silicone tube without any apertures”.

For the molecule `CCN(CC)CC(=O)Nc1c(C)cccc1C` [lidocaine], the mean pain score in the data set on IC (after second instillation) is on record as 1.2; with IC (immediately following treatment (prior to treatment 6.0)) it was 1.8; in the data set on IC (the next day), 3.7. The duration of effect entry in the data set with IC (single instillation) is recorded as “approximately 24 hours”.
